Experimental data taken from patent US20240024273A1, “TOPICAL ADMINISTRATION OF 2-(DIETHYLAMINO)ETHYL 2-(4-ISOBUTYLPHENYL)PROPRIONATE FOR TREATMENT OF DISEASES” (TECHFIELDS PHARMA CO., LTD., priority 2020, published 2024).

Assays:
Assay type in all cases: in vivo, human
[1] = test system: osteoarthritis of the knee; assay: Second Phase 2 study: Subject's Global Assessment of Disease Status (SGADS); details: all subjects, Week 12
Source text: 4.9.2. Secondary Efficacy Endpoints: • 1. Change from Baseline in the WOMAC (VAS) pain subscale score for the target knee at 2, 8, and 12 weeks of treatment; • 2. Change from Baseline in the WOMAC (VAS) stiffness subscale scores for the target knee and WOMAC (VAS) functional ability subscale scores at 2, 4, 8, and 12 weeks of treatment; • 3. Change from Baseline in the overall WOMAC (VAS) score at 2, 4, 8, and 12 weeks of treatment; • 4. Subject's global assessment of disease status of the target knee at 2, 4, 8, and 12 weeks of treatment; • 5. Subject's global assessment of response to therapy of the target knee at 2, 4, 8, and 12 weeks of treatment; • 6. Amount of rescue medication (acetaminophen) consumed per day for target knee pain.

[2] = test system: osteoarthritis of the knee; assay: Second Phase 2 study: Subject's pain Assessment Scores (SPA); details: for Subject's pain Assessment Scores, % of improvement from Oral Ibuprofen / Subject's pain Assessment Scores, % of improvement from Placebo / Subject's pain Assessment Scores, % of improvement from baseline / Subject's pain Assessment Scores, Changes from Baseline (LS Mean) / Subject's pain Assessment Scores, Week 12 (LS Mean) / Subject's pain Assessment Scores, Different from oral ibuprofen (LS Mean) / Subject's pain Assessment Scores, Different from placebo (LS Mean): all subjects
Description: Subjects will record the following information in a Daily Diary starting at Screening: the amount of knee pain in the target knee while walking during the preceding 24 hours (using a 100 mm visual analog scale [VAS]), the times and number of sprays for each administration of study medication, the times when the subject washes his/her knees and/or takes a shower, the number of tablets of rescue medication taken that day and the times taken, the reason for taking the rescue medication (e.g., knee pain, headache, low back pain), any other concomitant medications taken that day, and any AEs occurring that day.

[3] = test system: osteoarthritis of the knee; assay: Second Phase 2 study: Investigator's assessment of response to therapy (IART); details: Week 12; for IART: Good and Very good / IART: Poor and Very Poor / IART: fair: first 130 subjects; for IART, Good and Very good / IART, Poor and Very Poor / IART, fair: all subjects
Source text: 4.9.3. Exploratory Efficacy Endpoints: • 1. Investigator's global assessment of response to therapy of the target knee at 2, 4, 8, and 12 weeks of treatment; • 2. Change from Baseline over time in overall WOMAC (VAS) score for the target knee after the treatment is stopped for 2 weeks.

[4] = 17.5 mg/knee BID, Week 12, first 130 subjects
[5] = Week 12, 4.375 mg/knee BID (n = 23), first 130 subjects
[6] = Week 12, 8.75 mg/knee BID (n = 24), first 130 subjects
[7] = Week 12, 17.5 mg/knee BID (n = 19), first 130 subjects
[8] = 4.375 mg/knee BID, n = 49, Week 12
[9] = 8.75 mg/knee BID, n = 54, Week 12
[10] = 17.5 mg/knee BID, n = 52, Week 12

Compound: CCN(CC)CCOC(=O)C(C)c1ccc(CC(C)C)cc1 (stereo not shown) [2-(diethylamino)ethyl 2-(4-isobutylphenyl)propionate]
- Subject's Global Assessment of Disease Status Scores, % of improvement from baseline ([1]; 4.375 mg/knee BID, n = 49): −51.9%
- Subject's Global Assessment of Disease Status Scores, Changes from Baseline (LS Mean) ([1]; 4.375 mg/knee BID, n = 49): −34.7 mm
- Subject's Global Assessment of Disease Status Scores, Week 12 (LS Mean) ([1]; 4.375 mg/knee BID, n = 49): 32.1 mm
- Subject's Global Assessment of Disease Status Scores, % of improvement from Oral Ibuprofen ([1]; 8.75 mg/knee BID, n = 54): −6.4%
- Subject's Global Assessment of Disease Status Scores, % of improvement from Placebo ([1]; 8.75 mg/knee BID, n = 54): −7.1%
- Subject's Global Assessment of Disease Status Scores, % of improvement from baseline ([1]; 8.75 mg/knee BID, n = 54): −53.0%
- Subject's Global Assessment of Disease Status Scores, Changes from Baseline (LS Mean) ([1]; 8.75 mg/knee BID, n = 54): −36.6 mm
- Subject's Global Assessment of Disease Status Scores, Different from oral ibuprofen (LS Mean) ([1]; 8.75 mg/knee BID, n = 54): −3.4 mm
- Subject's Global Assessment of Disease Status Scores, Different from placebo (LS Mean) ([1]; 8.75 mg/knee BID, n = 54): −6.2 mm
- Subject's Global Assessment of Disease Status Scores, Week 12 (LS Mean) ([1]; 8.75 mg/knee BID, n = 54): 32.4 mm
- Subject's Global Assessment of Disease Status Scores, % of improvement from Oral Ibuprofen ([1]; 17.5 mg/knee BID, n = 52): −10.6%
- Subject's Global Assessment of Disease Status Scores, % of improvement from Placebo ([1]; 17.5 mg/knee BID, n = 52): −11.3%
- Subject's Global Assessment of Disease Status Scores, % of improvement from baseline ([1]; 17.5 mg/knee BID, n = 52): −57.2%
- Subject's Global Assessment of Disease Status Scores, Changes from Baseline (LS Mean) ([1]; 17.5 mg/knee BID, n = 52): −38.3 mm
- Subject's Global Assessment of Disease Status Scores, Different from placebo (LS Mean) ([1]; 17.5 mg/knee BID, n = 52): −7.9 mm
- Subject's Global Assessment of Disease Status Scores, Week 12 (LS Mean) ([1]; 17.5 mg/knee BID, n = 52): 28.7 mm
- SPA, difference from oral ibuprofen [2, 4]: −14.1 mm
- SPA, difference from placebo [2, 4]: −21.0 mm
- Subject’s pain Assessment Scores, Baseline (LS Mean) ([2]; 4.375 mg/knee BID (n = 23), first 130 subjects): 59.7 mm
- Subject’s pain Assessment Scores, Baseline (LS Mean) ([2]; 8.75 mg/knee BID (n = 24), first 130 subjects): 63.5 mm
- Subject’s pain Assessment Scores, Baseline (LS Mean) ([2]; 17.5 mg/knee BID (n = 19), first 130 subjects): 68.6 mm
- Subject’s pain Assessment Scores, % of improvement from Oral Ibuprofen [2, 5]: −2.3%
- Subject’s pain Assessment Scores, % of improvement from baseline [2, 5]: −38.5%
- Subject’s pain Assessment Scores, % of improvement from placebo [2, 5]: −9.3%
- Subject’s pain Assessment Scores, Changes from Baseline (LS Mean) [2, 5]: −23.0 mm
- Subject’s pain Assessment Scores, Different from oral ibuprofen (LS Mean) [2, 5]: 2.8 mm
- Subject’s pain Assessment Scores, Different from placebo (LS Mean) [2, 5]: −4.0 mm
- Subject’s pain Assessment Scores, Week 12 (LS Mean) [2, 5]: 36.7 mm
- Subject’s pain Assessment Scores, % of improvement from Oral Ibuprofen [2, 6]: −10.4%
- Subject’s pain Assessment Scores, % of improvement from baseline [2, 6]: −47.7%
- Subject’s pain Assessment Scores, % of improvement from placebo [2, 6]: −18.5%
- Subject’s pain Assessment Scores, Changes from Baseline (LS Mean) [2, 6]: −30.3 mm
- Subject’s pain Assessment Scores, Different from oral ibuprofen (LS Mean) [2, 6]: −3.8 mm
- Subject’s pain Assessment Scores, Different from placebo (LS Mean) [2, 6]: −11.4 mm
- Subject’s pain Assessment Scores, Week 12 (LS Mean) [2, 6]: 33.2 mm
- Subject’s pain Assessment Scores, % of improvement from Oral Ibuprofen [2, 7]: −22.0%
- Subject’s pain Assessment Scores, % of improvement from baseline [2, 7]: −58.2%
- Subject’s pain Assessment Scores, % of improvement from placebo [2, 7]: −29.0%
- Subject’s pain Assessment Scores, Changes from Baseline (LS Mean) [2, 7]: −39.9 mm
- Subject’s pain Assessment Scores, Different from oral ibuprofen (LS Mean) [2, 7]: −14.1 mm
- Subject’s pain Assessment Scores, Different from placebo (LS Mean) [2, 7]: −21.0 mm
- Subject’s pain Assessment Scores, Week 12 (LS Mean) [2, 7]: 28.7 mm
- Subject's pain Assessment Scores, % of improvement from Oral Ibuprofen [2, 8]: 4.9%
- Subject's pain Assessment Scores, % of improvement from Placebo [2, 8]: −3.5%
- Subject's pain Assessment Scores, % of improvement from baseline [2, 8]: −40.5%
- Subject's pain Assessment Scores, Changes from Baseline (LS Mean) [2, 8]: −25.6 mm
- Subject's pain Assessment Scores, Week 12 (LS Mean) [2, 8]: 37.5 mm
- Subject's pain Assessment Scores, % of improvement from Oral Ibuprofen [2, 9]: −3.0%
- Subject's pain Assessment Scores, % of improvement from Placebo [2, 9]: −11.4%
- Subject's pain Assessment Scores, % of improvement from baseline [2, 9]: −48.4%
- Subject's pain Assessment Scores, Changes from Baseline (LS Mean) [2, 9]: −31.4 mm
- Subject's pain Assessment Scores, Different from oral ibuprofen (LS Mean) [2, 9]: −0.8 mm
- Subject's pain Assessment Scores, Different from placebo (LS Mean) [2, 9]: −7.2 mm
- Subject's pain Assessment Scores, Week 12 (LS Mean) [2, 9]: 33.5 mm
- Subject's pain Assessment Scores, % of improvement from Oral Ibuprofen [2, 10]: −8.2%
- Subject's pain Assessment Scores, % of improvement from Placebo [2, 10]: −16.6%
- Subject's pain Assessment Scores, % of improvement from baseline [2, 10]: −53.6%
- Subject's pain Assessment Scores, Changes from Baseline (LS Mean) [2, 10]: −34.6 mm
- Subject's pain Assessment Scores, Different from oral ibuprofen (LS Mean) [2, 10]: −4.1 mm
- Subject's pain Assessment Scores, Different from placebo (LS Mean) [2, 10]: −10.5 mm
- Subject's pain Assessment Scores, Week 12 (LS Mean) [2, 10]: 30.0 mm
- IART: Good and Very good ([3]; 4.375 mg/knee BID (n = 23)): 39.1%
- IART: Poor and Very Poor ([3]; 4.375 mg/knee BID (n = 23)): 4.3%
- IART: fair ([3]; 4.375 mg/knee BID (n = 23)): 56.5%
- IART: Good and Very good ([3]; 8.75 mg/knee BID (n = 24)): 37.5%
- IART: Poor and Very Poor ([3]; 8.75 mg/knee BID (n = 24)): 12.5%
- IART: fair ([3]; 8.75 mg/knee BID (n = 24)): 50.0%
- IART: Good and Very good ([3]; 17.5 mg/knee BID (n = 19)): 57.9%
- IART: Poor and Very Poor ([3]; 17.5 mg/knee BID (n = 19)): 5.3%
- IART: fair ([3]; 17.5 mg/knee BID (n = 19)): 36.8%
- IART, Good and Very good ([3]; 4.375 mg/knee BID, n = 49): 40.8%
- IART, Poor and Very Poor ([3]; 4.375 mg/knee BID, n = 49): 10.2%
- IART, fair ([3]; 4.375 mg/knee BID, n = 49): 49.0%
- IART, Good and Very good ([3]; 8.75 mg/knee BID, n = 54): 50.0%
- IART, Poor and Very Poor ([3]; 8.75 mg/knee BID, n = 54): 13.0%
- IART, fair ([3]; 8.75 mg/knee BID, n = 54): 37.0%
- IART, Good and Very good ([3]; 17.5 mg/knee BID, n = 52): 61.5%
- IART, Poor and Very Poor ([3]; 17.5 mg/knee BID, n = 52): 3.8%
- IART, fair ([3]; 17.5 mg/knee BID, n = 52): 34.6%
